Measurements taken from US10092537B2, “Use for PAI-1 inhibitor” (RENASCIENCE CO., LTD., priority 2013, dated 2018).
One block for each molecule: values may come before it.

What was measured:
[1] = biological target: T1, human PAI-1 (Homo sapiens, UniProt P05121); assay: Measurement of PAI-1 inhibitory activity of compound group 1 (t-PA, S-2288 chromogenic substrate); conditions: read-out: PAI-1 activity %
Description: Subsequently, human-derived tissue plasminogen activator (t-PA) (manufactured by American Diagnostica, Inc. (USA); the same applies hereinafter) adjusted to 0.35 pmol/μL was added thereto, and the mixture was further incubated at 37° C. for 15 minutes.

[2] = biological target: T1, human PAI-1; assay: Measurement of PAI-1 inhibitory activity of compound group 3 (t-PA, S-2288 chromogenic substrate; Table 4)
Description: Subsequently, tissue plasminogen activator (t-PA) (manufactured by American Diagnostica, Inc. (USA); the same applies hereinafter) adjusted to 0.3 pmol/μL was added thereto, and further incubated at 37° C. for 15 minutes.

[3] = biological target: T1, human PAI-1; assay: Measurement of PAI-1 inhibitory activity of compound group 2 (t-PA, S-2288 chromogenic substrate); conditions: PAI-1 activity of the system without compound after 30 minutes taken as 100%
Description: Subsequently, human-derived tissue plasminogen activator (t-PA) (manufactured by American Diagnostica, Inc. (USA); the same applies hereinafter) adjusted to 0.3 pmol/μL was added thereto, and the mixture was further incubated at 37° C. for 15 minutes.

[4] = tested on: hematopoietic stem cells; assay: Hematopoietic recovery after bone-marrow transplantation, compounds a, b, c (Experimental Example 5); format: in vivo, mice; conditions: compound a 100 mg/kg oral 4 days; compounds b and c 10 mg/kg oral 6 consecutive days after bone-marrow transplantation
Description: The procedures of Experimental Examples 4 (1) and 4 (4) were repeated using compounds b and c, instead of compound a, as a test compound.
Compound a was orally administered in an amount of 100 mg/kg for 4 consecutive days after bone-marrow transplantation. Compounds b and c were orally administered in an amount of 10 mg/kg for 6 consecutive days after bone-marrow transplantation.
Bone marrow was collected 1 and 3 weeks after bone-marrow transplantation. The total number of the whole bone-marrow cells (FIG. 9E), the proportion (%) of LSK-CD34 negative cells in the whole bone marrow (FIG. 9A), the total number of LSK-CD34 negative cells in the whole bone marrow (FIG. 9B), the proportion (%) of Lin-SLAM cells in the whole bone marrow (FIG. 9C), and the total number of Lin-SLAM cells in the whole bone marrow (FIG. 9D) were measured. The results are shown in the above-stated figures.

[5] = tested on: CML cells; assay: Chronic myelogenous leukemia model mice, imatinib with compound d or compound e (Experimental Example 17); format: in vivo; conditions: imatinib 150 mg/kg/day + compound d or compound e 10 mg/kg/day via gavage, day 8 to day 14
Description: Group 1: placebo group (physiological saline was administered via gavage)
Group 2: imatinib group (imatinib [150 mg/kg/day] was administered via gavage)
Group 3: imatinib+compound d group (imatinib [150 mg/kg/day] and compound d [10 mg/kg/day] were administered via gavage)
Group 4: imatinib+compound e group (imatinib [150 mg/kg/day] and compound e [10 mg/kg/day] were administered via gavage)
8 days after (day 8) the day (day 0) on which CML cells were intravenously inoculated, administration of test drugs to the groups was started. The placebo group and the imatinib group were administered the respective test drugs once a day from day 8 to day 14 (7 doses in total). The imatinib+compound d group and imatinib+compound e group were administered imatinib once a day from day 8 to day 14 (7 doses in total), and also administered compound d or e once a day from day 8 to day 14 (7 doses in total).

[6] = biological target: T1, human PAI-1; assay: Measurement of PAI-1 inhibitory activity of compound group 1 (t-PA, Spectrozyme t-PA chromogenic substrate); conditions: read-out: PAI-1 activity %
Description: Subsequently, human-derived tissue plasminogen activator (t-PA) (manufactured by American Diagnostica, Inc. (USA); the same applies hereinafter) adjusted to 0.05 pmol/μL was added thereto, and the mixture was further incubated at 37° C. for 60 minutes. Then, 0.25 mM of Spectrozyme t-PA synthetic substrate (manufactured by American Diagnostica, Inc. (USA); the same applies hereinafter), which is a chromogenic substrate, was added. The final mixture contained 50 mM Tris-HCl (pH 8), 150 mM NaCl, 1% DMSO, 0.1% PEG-6000, 0.2 mM CHAPS, 5 nM PAI-1, 2 nM t-PA, 0.2 mM Spectrozyme t-PA synthetic substrate, and each compound (10 μM or 2.5 μM).
Free radical p-nitroaniline removed from the chromogenic substrate (Spectrozyme t-PA) by t-PA action was measured using a spectrophotometer at an absorbance of 405 nm at 20-minute intervals, for 120 minutes.

[7] = tested on: hematopoietic stem cells; assay: Frequency and absolute number of hematopoietic stem cells after bone-marrow transplantation (Experimental Example 8 (1)); format: in vivo, mice; conditions: 1 and 3 weeks after bone-marrow transplantation; compared with control group
Description: In accordance with the procedure of Experimental Example 7 (1), bone marrow was transplanted, and tPA or compound a was administered in the same manner as in Experimental Example 7. Physiological saline was administered to a control group. 1 and 3 weeks after bone-marrow transplantation, 12 mice of each group were measured for the number of bone-marrow mononucleic cells (BM MNC), the frequency and absolute number of Lin-SLAM cells, and the frequency and absolute number of LSK-CD34 negative cells.

[8] = tested on: hematopoietic stem cells; assay: Cell cycle (Ki-67, BrdU) and apoptosis (Annexin V) of bone-marrow cells 1 week after bone-marrow transplantation (Experimental Example 9); format: in vivo, mice
Description: In accordance with Experimental Example 7 (1), bone-marrow transplantation was conducted, and after the transplantation, physiological saline (control group), tPA (tPA-administered group), or compound a (compound a-administered group) was administered.
1 week after bone-marrow transplantation, the bone marrow was collected, and Ki-67 protein, which is a cell division marker, was immunostained with anti-Ki-67-FITC antibody (BD Bioscience) to analyze the cells in the cell-division cycle by FACSCalibur.
Subsequently, the number of Ki-67 positive cells in the cells of LSK fraction was examined to confirm that the proliferation of hematopoietic stem cells is promoted by compound a.
In addition, to more accurately detect the cells that moved to the S phase, 5-bromo-2-deoxyuridine (BrdU)-FITC (BD Pharmingen) was administered to the control group, tPA group, and compound a-administered group 1 week after bone-marrow transplantation, 3 hours before the collection of bone marrow. 6 mice were used for each group.
Because BrdU is a thymine derivative, BrdU, substituting for thymine, is incorporated into genomic DNA or the like during DNA replication. BrdU more specifically reflects the S phase than Ki-67 protein.
1 week after bone-marrow transplantation, bone marrow was collected from the control group, tPA group, and compound a-administered group (6 mice for each group), and Annexin V, which appears specifically in apoptosis, was detected with anti-Annexin V antibody immunostaining.

[9] = tested on: hematopoietic stem cells; assay: Fibrinolytic pathway activation and bone-marrow regeneration after lethal radiation (9Gy) and bone-marrow transplantation, compound a versus recombinant tPA (Experimental Example 7)
Description: Within 4 hours, 1.0×10^6 bone-marrow mononucleic cells (BM MNC) were intravenously inoculated into retro-orbital plexus. Concurrently with transplantation, compound a (dosage 100 mg/kg) or recombinant tPA (dosage 100 mg/kg, Eisai Co., Ltd) were administered as a test compound via oral gavage, and the test compound was orally administered for 5 consecutive days (administered group). As a control test, instead of the test compound, physiological saline (vehicle) used for dissolving compound a was orally administered in the same manner (control group).
Blood was collected 2 and 7 days after bone-marrow transplantation, and the active PAI-1 level (ng/mL), active tissue-type plasminogen activator (active tPA), plasmin level (ng/mL), cKit ligand, and total MMP-9 (Matrix metalloprotein-9) in the plasma were measured.

[10] = tested on: hematopoietic stem cells; assay: Bone-marrow transplanted mice, compound c, G-CSF and G-CSF neutralizing antibody (Experimental Example 13); format: in vivo; conditions: G-CSF 150 μg/kg/day
Description: Bone-marrow transplanted mice were prepared in the same manner as in Experimental Example 4, and compound c, G-CSF, and G-CSF neutralizing antibody were examined for the effects. Specifically, the bone-marrow transplanted mice were divided into 5 groups as shown below (each group: n=5) and orally administered respective test drugs.
Group 1: vehicle group (physiological saline was administered via gavage) (“v group”)
Group 2: compound c group (compound c [10 mg/kg/day] was administered via gavage) (“TM group”)
Group 3: G-CSF group (G-CSF [150 μg/kg/day] was administered via gavage) (“G group”)
Group 4: vehicle+anti-G-CSF group (physiological saline+G-CSF neutralizing antibody [500 μg/kg/day] was administered via gavage) (“v+Ab group”)
Group 5: compound c+anti-G-CSF group (compound c [500 μg/kg/day]+G-CSF neutralizing antibody [500 μg/kg/day] was administered via gavage) (“TM+Ab group”)
Concurrently with bone-marrow transplantation, administration of physiological saline (vehicle) to the vehicle group via gavage was started, and the administration continued for 5 consecutive days. Concurrently with bone-marrow transplantation, administration of compound c (10 mg/kg/day) to the compound c group via gavage was started, and the administration continued for 5 consecutive days. Concurrently with bone-marrow transplantation, subcutaneous administration of G-CSF (150 μg/kg/day) to the G-CSF group was started, and the administration continued for 5 consecutive days. Concurrently with bone-marrow transplantation, gavage administration of physiological saline and subcutaneous administration of G-CSF neutralizing antibody (R&D) (500 μg/kg/day) to the vehicle+anti-G-CSF group were started, and the administration continued for 5 consecutive days. Concurrently with bone-marrow transplantation, gavage administration of compound c (10 mg/kg/day) and intraperitoneal administration of G-CSF neutralizing antibody (R&D) (500 μg/kg/day) to the compound c+anti-G-CSF group were started, and the administration continued for 5 consecutive days.
1 week after bone-marrow transplantation, plasma and bone-marrow fluids were collected from mice of each group (v group, TM group, G group, v+Ab group, and TM+Ab group), and the G-CSF concentration (pg/ml) was measured by ELISA. The following were determined in accordance with an ordinary procedure: (B) G-CSF concentration (pg/ml) in bone-marrow fluids, (C) total number of mononucleic cells (×10E7 cell) in the bone marrow, (D) proportion (%) of LSK CD34 negative cells in the bone marrow, (E) total number of LSK CD34 negative cells in the bone marrow, (F) proportion (%) of Lin-SLAM cells in the bone marrow, and (G) total number of Lin-SLAM cells in the bone marrow.

[11] = tPA group compared with control group, compound a group compared with tPA group

T1 sequence (P05121 24-402): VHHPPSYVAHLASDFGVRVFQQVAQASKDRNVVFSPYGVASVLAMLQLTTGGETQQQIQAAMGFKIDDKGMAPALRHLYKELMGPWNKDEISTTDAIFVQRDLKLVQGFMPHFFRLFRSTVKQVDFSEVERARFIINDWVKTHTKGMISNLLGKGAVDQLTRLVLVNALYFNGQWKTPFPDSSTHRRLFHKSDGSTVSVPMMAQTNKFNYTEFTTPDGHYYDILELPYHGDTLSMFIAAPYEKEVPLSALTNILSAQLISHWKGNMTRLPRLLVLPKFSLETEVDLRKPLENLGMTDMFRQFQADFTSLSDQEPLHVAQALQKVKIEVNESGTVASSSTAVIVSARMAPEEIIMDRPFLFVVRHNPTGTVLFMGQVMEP

Molecule: O=C(Nc1cccc(-c2ccoc2)c1)C(=O)Nc1ccc(Cl)cc1C(=O)O [Example 45 (compound group 3), 5-chloro-2-{[{[3-(furan-3-yl)phenyl]amino}(oxo)acetyl]amino}benzoic acid]
- frequency of hematopoietic stem cells [4]: increase
- self-renewal capacity of hematopoietic stem cells [4]: enhance

Molecule: O=C(COCC(=O)Nc1ccc(Cl)cc1C(=O)O)Nc1cccc(-c2ccco2)c1 [Example 61 (compound group 3), 5-chloro-2-{[(2-{[3-(furan-2-yl)phenyl]amino}-2-oxoethoxy)acetyl]amino}benzoic acid]
- survival [5]: some mice survived even after day 40

Molecule: tPA: recombinant tPA (tissue-type plasminogen activator), Eisai Co., Ltd
- number of bone-marrow mononucleic cells [7]: slightly larger
- proportion of cells that were induced apoptosis (Annexin V) ([8]; compared with control group): decrease
- cells in the S phase (BrdU incorporated into LSK cells) ([8]; control group 18.1%): 18.8%
- Ki-67 positive, cells classified into the LSK fraction taken as 100% ([8]; control group 43.3%): 50.7%
- cell count of cells at the S-G2-M phase (Ki-67) in bone-marrow mononucleic cells ([8]; control group 44.2%): 50.8%
- cell count of cells at the G0/G1 phase (Ki-67) in bone-marrow mononucleic cells ([8]; control group 55.8%): 49.2%
- level of active tPA in plasma ([9]; 2 days after bone-marrow transplantation, among control, tPA and compound a groups): highest level
- expression of active PAI-1 in the plasma ([9]; compound a or recombinant tPA 100 mg/kg, 5 consecutive days, 2 and 7 days after bone-marrow transplantation): lower than that of the control group
- survival rate on day 28 from bone-marrow transplantation ([9]; lethal radiation 9Gy, 100 mg/kg, 5 consecutive days, n=15, control group 20%): 50%
- platelet count in the peripheral blood [9, 11]: significantly increased
- white blood cell count in the peripheral blood [9, 11]: significantly increased

B1: G-CSF: granulocyte colony stimulating factor, administered 150 μg/kg/day (protein, UniProt P09919 31-207, looked up)
Granulocyte …: TPLGPASSLPQSFLLKCLEQVRKIQGDGAALQEKLVSECATYKLCHPEELVLLGHSLGIPWAPLSSCPSQALQLAGCLSQLHSGLFLYQGLLQALEGISPELGPTLDTLQLDVADFATTIWQQMEELGMAPALQPTQGAMPAFASAFQRRAGGVLVASHLQSFLEVSYRVLRHLAQP
- proportion and number of Lin-SLAM cells ([10]; single agents: TM (compound c) 10 mg/kg/day, G-CSF neutralizing antibody 500 μg/kg/day with vehicle, versus vehicle group): increased
- G-CSF concentration in the plasma and bone-marrow fluids ([10]; single agents: compound c 10 mg/kg/day gavage, G-CSF neutralizing antibody 500 μg/kg/day with vehicle, 1 week after transplantation, versus vehicle): significant increases
- proportion and number of LSK CD34 negative cells ([10]; single agents: compound c 10 mg/kg/day, G-CSF neutralizing antibody 500 μg/kg/day with vehicle, versus vehicle group): increased
- number of BM MNC ([10]; single agents: compound c 10 mg/kg/day, versus vehicle group): more increased

More lines, now with the values ahead:

- activity at 20 µM [1]: 68.2%
- activity at 50 µM [1]: 26.1%
- PAI-1 activity % ([2]; compound concentration 20 μM): 64.7%
- PAI-1 activity % ([2]; compound concentration 50 μM): 11.5%
- PAI-1 activity % ([3]; compound 50 μM): 99.3%
- PAI-1 activity % ([3]; compound 100 μM): 20.7%
Molecule: O=C([O-])c1cc(Cl)ccc1NC(=O)C1CCCN(C(=O)c2cccc(-c3ccoc3)c2)C1.[Na+] (stereo not drawn) [Example 11, sodium 5-chloro-2-{[(1-{[3-(furan-3-yl)phenyl]carbonyl}piperidin-3-yl)carbonyl]amino}benzoate]

- PAI-1 activity % ([2]; compound concentration 20 μM): 59.2%
- PAI-1 activity % ([2]; compound concentration 50 μM): 17.7%
- PAI-1 activity % ([3]; compound 20 μM): 97.7%
- PAI-1 activity % ([3]; compound 50 μM): 13.1%
- activity at 2.5 µM [6]: 22.6%
- activity at 10 µM [6]: 0.1%
Molecule: O=C(Nc1ccc(Cl)cc1C(=O)[O-])c1cccc(-c2cccc3cnccc23)c1.[Na+] [Example 66, sodium 5-chloro-2-({[3-(isoquinolin-5-yl)phenyl]carbonyl}amino)benzoate]

- PAI-1 activity % ([2]; compound concentration 20 μM): 57.6%
- PAI-1 activity % ([2]; compound concentration 50 μM): 8.1%
- PAI-1 activity % ([3]; compound 20 μM): 99.8%
- PAI-1 activity % ([3]; compound 50 μM): 75.0%
- activity at 2.5 µM [6]: 90.4%
- activity at 10 µM [6]: 0.6%
Molecule: O=C(Nc1ccc(Cl)cc1C(=O)[O-])c1ccc(-c2cccc3cccnc23)cc1.[Na+] [Example 67, sodium 5-chloro-2-({[4-(quinolin-8-yl)phenyl]carbonyl}amino)benzoate]

- PAI-1 activity % ([2]; compound concentration 20 μM): 20.7%
- PAI-1 activity % ([2]; compound concentration 50 μM): 9.4%
- PAI-1 activity % ([3]; compound 20 μM): 99.8%
- PAI-1 activity % ([3]; compound 50 μM): 66.3%
- activity at 2.5 µM [6]: 2.4%
- activity at 10 µM [6]: 2.1%
Molecule: O=C(Nc1ccc(Cl)cc1C(=O)[O-])c1cccc(-c2cccc3cccnc23)c1.[Na+] [Example 68, sodium 5-chloro-2-({[3-(quinolin-8-yl)phenyl]carbonyl}amino)benzoate]
